What was measured:
[1] = test system: Leucine-rich repeat serine/threonine-protein kinase 2 (Homo sapiens), Q5S007 [G2019S]; conditions: Compound concentration 1000.0 nM
[2] = test system: Epidermal growth factor receptor (Homo sapiens), P00533 [UNDEFINED MUTATION]; conditions: Compound concentration 1000.0 nM
[3] = test system: Epidermal growth factor receptor (Homo sapiens), P00533 [UNDEFINED MUTATION]; conditions: Compound concentration 1000.0 nM; remark: listed apart in the source
[4] = target: Uncharacterized serine/threonine-protein kinase SBK3 (Homo sapiens) (UniProt P0C264); conditions: Compound concentration 1000.0 nM
[5] = target: Mitogen-activated protein kinase kinase kinase 12 (Homo sapiens) (UniProt Q12852); conditions: Compound concentration 1000.0 nM
[6] = test system: Tyrosine-protein kinase ABL1 (Homo sapiens), P00519 [F317L]; conditions: Compound concentration 1000.0 nM
[7] = target: Serine/threonine-protein kinase Nek4 (Homo sapiens) (UniProt P51957); conditions: Compound concentration 1000.0 nM
Chain of Serine/threonine-protein kinase Nek4 (Homo sapiens) (P51957 whole entry, looked up): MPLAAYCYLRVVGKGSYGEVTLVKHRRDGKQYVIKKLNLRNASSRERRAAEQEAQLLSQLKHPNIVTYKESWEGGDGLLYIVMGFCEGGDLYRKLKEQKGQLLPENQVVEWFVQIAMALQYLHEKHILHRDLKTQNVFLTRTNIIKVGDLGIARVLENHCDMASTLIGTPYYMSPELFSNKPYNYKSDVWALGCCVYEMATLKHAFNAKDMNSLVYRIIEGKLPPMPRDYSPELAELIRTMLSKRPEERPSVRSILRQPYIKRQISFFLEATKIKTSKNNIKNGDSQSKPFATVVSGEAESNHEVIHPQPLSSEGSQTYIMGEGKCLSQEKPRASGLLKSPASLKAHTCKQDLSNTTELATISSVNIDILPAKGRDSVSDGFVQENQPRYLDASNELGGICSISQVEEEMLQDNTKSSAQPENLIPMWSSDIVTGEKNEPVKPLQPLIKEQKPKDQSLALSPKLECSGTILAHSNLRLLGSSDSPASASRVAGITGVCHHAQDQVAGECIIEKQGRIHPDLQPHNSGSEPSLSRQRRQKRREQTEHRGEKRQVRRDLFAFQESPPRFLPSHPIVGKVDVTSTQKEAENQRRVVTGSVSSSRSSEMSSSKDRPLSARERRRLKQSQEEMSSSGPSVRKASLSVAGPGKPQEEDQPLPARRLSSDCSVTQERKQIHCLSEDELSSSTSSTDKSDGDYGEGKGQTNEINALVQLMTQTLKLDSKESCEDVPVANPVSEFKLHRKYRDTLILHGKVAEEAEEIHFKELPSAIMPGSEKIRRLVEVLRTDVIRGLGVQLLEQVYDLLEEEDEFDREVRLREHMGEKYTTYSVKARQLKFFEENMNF

[8] = target: Serine/threonine-protein kinase WNK4 (Homo sapiens) (UniProt Q96J92); conditions: Compound concentration 1000.0 nM
[9] = target: Serine/threonine-protein kinase PLK1 (Homo sapiens) (UniProt P53350); conditions: Compound concentration 1000.0 nM
Chain of Serine/threonine-protein kinase PLK1 (Homo sapiens) (P53350 whole entry): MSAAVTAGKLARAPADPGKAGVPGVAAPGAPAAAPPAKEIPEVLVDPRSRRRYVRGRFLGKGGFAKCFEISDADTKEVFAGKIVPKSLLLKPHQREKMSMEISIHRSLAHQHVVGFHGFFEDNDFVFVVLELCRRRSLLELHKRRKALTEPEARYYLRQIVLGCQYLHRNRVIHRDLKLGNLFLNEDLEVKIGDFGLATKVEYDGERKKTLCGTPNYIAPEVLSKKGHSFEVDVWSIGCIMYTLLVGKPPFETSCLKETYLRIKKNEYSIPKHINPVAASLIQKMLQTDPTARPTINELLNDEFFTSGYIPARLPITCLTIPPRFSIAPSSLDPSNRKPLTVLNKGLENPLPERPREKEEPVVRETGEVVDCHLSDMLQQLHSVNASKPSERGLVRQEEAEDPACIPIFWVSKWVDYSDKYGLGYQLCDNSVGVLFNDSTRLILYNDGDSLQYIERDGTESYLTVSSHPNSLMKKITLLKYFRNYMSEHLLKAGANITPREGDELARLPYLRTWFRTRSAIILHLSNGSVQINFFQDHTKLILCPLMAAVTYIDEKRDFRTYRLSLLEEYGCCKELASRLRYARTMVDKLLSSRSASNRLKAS

[10] = target: Cytoplasmic tyrosine-protein kinase BMX (Homo sapiens) (UniProt P51813); conditions: Compound concentration 1000.0 nM
[11] = target: Dual specificity tyrosine-phosphorylation-regulated kinase 2 (Homo sapiens) (UniProt Q92630); conditions: Compound concentration 1000.0 nM
Chain of Dual specificity tyrosine-phosphorylation-regulated kinase 2 (Homo sapiens) (Q92630 whole entry): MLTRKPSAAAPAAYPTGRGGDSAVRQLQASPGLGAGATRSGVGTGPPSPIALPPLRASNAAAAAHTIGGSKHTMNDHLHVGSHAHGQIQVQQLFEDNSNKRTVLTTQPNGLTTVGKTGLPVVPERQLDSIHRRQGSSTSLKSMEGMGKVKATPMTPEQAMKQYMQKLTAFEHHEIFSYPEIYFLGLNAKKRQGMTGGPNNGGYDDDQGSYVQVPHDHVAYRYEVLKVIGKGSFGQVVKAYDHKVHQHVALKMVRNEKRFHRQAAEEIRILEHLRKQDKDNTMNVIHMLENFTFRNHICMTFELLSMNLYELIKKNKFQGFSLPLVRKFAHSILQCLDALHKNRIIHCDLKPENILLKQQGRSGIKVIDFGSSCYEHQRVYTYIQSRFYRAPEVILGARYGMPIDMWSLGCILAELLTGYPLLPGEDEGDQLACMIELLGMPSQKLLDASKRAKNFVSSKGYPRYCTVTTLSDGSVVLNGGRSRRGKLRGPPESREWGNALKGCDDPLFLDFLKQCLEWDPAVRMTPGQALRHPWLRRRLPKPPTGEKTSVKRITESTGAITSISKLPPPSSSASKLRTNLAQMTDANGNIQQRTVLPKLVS

[12] = target: Serine/threonine-protein kinase 32B (Homo sapiens) (UniProt Q9NY57); conditions: Compound concentration 1000.0 nM
[13] = target: Atypical kinase COQ8B, mitochondrial (Homo sapiens) (UniProt Q96D53); conditions: Compound concentration 1000.0 nM
Chain of Atypical kinase COQ8B, mitochondrial (Homo sapiens) (Q96D53 whole entry, canonical isoform): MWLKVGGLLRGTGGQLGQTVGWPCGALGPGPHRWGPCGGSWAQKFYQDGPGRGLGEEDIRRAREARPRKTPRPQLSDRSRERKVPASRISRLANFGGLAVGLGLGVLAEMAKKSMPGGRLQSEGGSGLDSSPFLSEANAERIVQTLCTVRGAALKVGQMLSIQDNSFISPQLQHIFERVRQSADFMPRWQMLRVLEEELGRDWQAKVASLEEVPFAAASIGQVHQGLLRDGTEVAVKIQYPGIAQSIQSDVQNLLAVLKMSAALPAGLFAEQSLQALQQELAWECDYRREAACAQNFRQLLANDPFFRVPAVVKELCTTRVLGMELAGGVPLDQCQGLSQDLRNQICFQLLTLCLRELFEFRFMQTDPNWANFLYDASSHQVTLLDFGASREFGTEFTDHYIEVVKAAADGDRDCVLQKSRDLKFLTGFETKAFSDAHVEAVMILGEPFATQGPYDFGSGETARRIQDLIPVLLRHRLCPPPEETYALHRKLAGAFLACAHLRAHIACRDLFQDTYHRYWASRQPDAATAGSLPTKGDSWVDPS

[14] = test system: Phosphatidylinositol 4,5-bisphosphate 3-kinase catalytic subunit alpha isoform (Homo sapiens), P42336 [Q546K]; conditions: Compound concentration 1000.0 nM
[15] = test system: Mast/stem cell growth factor receptor Kit (Homo sapiens), P10721 [V559D]; conditions: Compound concentration 1000.0 nM
Chain of Mast/stem cell growth factor receptor Kit (Homo sapiens), P10721 [V559D] (P10721 whole entry V559D): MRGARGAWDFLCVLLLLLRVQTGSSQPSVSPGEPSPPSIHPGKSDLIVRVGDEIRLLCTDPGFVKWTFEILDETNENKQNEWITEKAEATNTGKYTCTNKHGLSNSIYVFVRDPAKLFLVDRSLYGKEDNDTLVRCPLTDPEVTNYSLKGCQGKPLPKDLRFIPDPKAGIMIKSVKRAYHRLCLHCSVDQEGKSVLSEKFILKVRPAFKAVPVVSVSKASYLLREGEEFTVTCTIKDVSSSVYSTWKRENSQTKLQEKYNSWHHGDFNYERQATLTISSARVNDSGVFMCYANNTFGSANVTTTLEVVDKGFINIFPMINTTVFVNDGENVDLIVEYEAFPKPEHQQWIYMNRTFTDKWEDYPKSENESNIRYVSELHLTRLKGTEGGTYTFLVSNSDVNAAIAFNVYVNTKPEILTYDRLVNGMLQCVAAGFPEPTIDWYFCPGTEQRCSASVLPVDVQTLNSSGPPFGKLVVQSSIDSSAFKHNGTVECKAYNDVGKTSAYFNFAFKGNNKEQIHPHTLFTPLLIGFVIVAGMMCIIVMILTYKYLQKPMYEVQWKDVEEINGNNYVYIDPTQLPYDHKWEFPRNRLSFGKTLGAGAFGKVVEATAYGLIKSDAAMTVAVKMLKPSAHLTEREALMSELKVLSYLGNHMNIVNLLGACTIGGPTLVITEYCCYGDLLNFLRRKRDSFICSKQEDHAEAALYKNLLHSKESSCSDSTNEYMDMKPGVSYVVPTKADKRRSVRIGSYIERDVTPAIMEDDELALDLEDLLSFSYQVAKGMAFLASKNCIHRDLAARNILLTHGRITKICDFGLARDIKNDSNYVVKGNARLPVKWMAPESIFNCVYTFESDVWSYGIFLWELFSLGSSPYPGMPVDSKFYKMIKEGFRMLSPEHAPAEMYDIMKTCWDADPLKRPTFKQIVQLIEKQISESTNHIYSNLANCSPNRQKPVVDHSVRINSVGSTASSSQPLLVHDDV

[16] = test system: Receptor-type tyrosine-protein kinase FLT3 (Homo sapiens), P36888 [UNDEFINED MUTATION]; conditions: Compound concentration 1000.0 nM
[17] = target: Glycogen synthase kinase-3 beta (Homo sapiens) (UniProt P49841); conditions: Compound concentration 1000.0 nM
[18] = test system: Tyrosine-protein kinase ABL1 (Homo sapiens), P00519 [T315I]; conditions: Compound concentration 1000.0 nM
[19] = test system: eIF-2-alpha kinase GCN2 (Homo sapiens), Q9P2K8 [S808G]; conditions: Compound concentration 1000.0 nM
[20] = target: Receptor-type tyrosine-protein kinase FLT3 (Homo sapiens) (UniProt P36888); conditions: Compound concentration 1000.0 nM
[21] = target: Tyrosine-protein kinase receptor Tie-1 (Homo sapiens) (UniProt P35590); conditions: Compound concentration 1000.0 nM
[22] = target: Inhibitor of nuclear factor kappa-B kinase subunit epsilon (Homo sapiens) (UniProt Q14164); conditions: Compound concentration 1000.0 nM
[23] = target: Aurora kinase C (Homo sapiens) (UniProt Q9UQB9); conditions: Compound concentration 1000.0 nM
[24] = test system: Epidermal growth factor receptor (Homo sapiens), P00533 [UNDEFINED MUTATION]; conditions: Compound concentration 1000.0 nM; remark: listed apart in the source
[25] = target: Serine/threonine-protein kinase Nek7 (Homo sapiens) (UniProt Q8TDX7); conditions: Compound concentration 1000.0 nM
Chain of Serine/threonine-protein kinase Nek7 (Homo sapiens) (Q8TDX7 whole entry, looked up): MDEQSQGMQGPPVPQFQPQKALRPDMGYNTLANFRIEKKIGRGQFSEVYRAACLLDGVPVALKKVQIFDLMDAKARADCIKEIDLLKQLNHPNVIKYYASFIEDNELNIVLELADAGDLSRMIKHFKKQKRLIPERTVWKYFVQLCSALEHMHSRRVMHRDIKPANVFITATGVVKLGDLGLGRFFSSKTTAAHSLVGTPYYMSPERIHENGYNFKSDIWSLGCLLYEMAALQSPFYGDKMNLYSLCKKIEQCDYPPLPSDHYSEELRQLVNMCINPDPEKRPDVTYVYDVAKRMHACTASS

[26] = target: Rhodopsin kinase GRK7 (Homo sapiens) (UniProt Q8WTQ7); conditions: Compound concentration 1000.0 nM
[27] = target: Ephrin type-B receptor 2 (Homo sapiens) (UniProt P29323); conditions: Compound concentration 1000.0 nM
[28] = target: NT-3 growth factor receptor (Homo sapiens) (UniProt Q16288); conditions: Compound concentration 1000.0 nM
[29] = target: Serine/threonine-protein kinase TNNI3K (Homo sapiens) (UniProt Q59H18); conditions: Compound concentration 1000.0 nM
[30] = target: Mitogen-activated protein kinase 8 (Homo sapiens) (UniProt P45983); conditions: Compound concentration 1000.0 nM
[31] = target: Maternal embryonic leucine zipper kinase (Homo sapiens) (UniProt Q14680); conditions: Compound concentration 1000.0 nM
[32] = target: Mitogen-activated protein kinase kinase kinase 19 (Homo sapiens) (UniProt Q56UN5); conditions: Compound concentration 1000.0 nM
[33] = target: Homeodomain-interacting protein kinase 2 (Homo sapiens) (UniProt Q9H2X6); conditions: Compound concentration 1000.0 nM
[34] = target: Serine/threonine-protein kinase pim-3 (Homo sapiens) (UniProt Q86V86); conditions: Compound concentration 1000.0 nM
[35] = target: Beta-3 adrenergic receptor (Homo sapiens) (UniProt P13945); conditions: Compound concentration 10.0 uM
[36] = target: Receptor tyrosine-protein kinase erbB-4 (Homo sapiens) (UniProt Q15303); conditions: Compound concentration 1000.0 nM
[37] = target: Macrophage-stimulating protein receptor (Homo sapiens) (UniProt Q04912); conditions: Compound concentration 1000.0 nM
[38] = target: Serine/threonine-protein kinase PAK 4 (Homo sapiens) (UniProt O96013); conditions: Compound concentration 1000.0 nM
[39] = target: Ribosomal protein S6 kinase alpha-6 (Homo sapiens) (UniProt Q9UK32); conditions: Compound concentration 1000.0 nM
[40] = target: Serine/threonine-protein kinase Sgk2 (Homo sapiens) (UniProt Q9HBY8); conditions: Compound concentration 1000.0 nM
[41] = test system: Phosphatidylinositol 4,5-bisphosphate 3-kinase catalytic subunit alpha isoform (Homo sapiens), P42336 [E545A]; conditions: Compound concentration 1000.0 nM
[42] = target: Insulin receptor (Homo sapiens) (UniProt P06213); conditions: Compound concentration 1000.0 nM
[43] = target: Transient receptor potential cation channel subfamily M member 6 (Homo sapiens) (UniProt Q9BX84); conditions: Compound concentration 1000.0 nM
[44] = target: Wee1-like protein kinase 2 (Homo sapiens) (UniProt P0C1S8); conditions: Compound concentration 1000.0 nM

Chain of Epidermal growth factor receptor (Homo sapiens), P00533 [UNDEFINED MUTATION] (P00533 whole entry, looked up, change not shown): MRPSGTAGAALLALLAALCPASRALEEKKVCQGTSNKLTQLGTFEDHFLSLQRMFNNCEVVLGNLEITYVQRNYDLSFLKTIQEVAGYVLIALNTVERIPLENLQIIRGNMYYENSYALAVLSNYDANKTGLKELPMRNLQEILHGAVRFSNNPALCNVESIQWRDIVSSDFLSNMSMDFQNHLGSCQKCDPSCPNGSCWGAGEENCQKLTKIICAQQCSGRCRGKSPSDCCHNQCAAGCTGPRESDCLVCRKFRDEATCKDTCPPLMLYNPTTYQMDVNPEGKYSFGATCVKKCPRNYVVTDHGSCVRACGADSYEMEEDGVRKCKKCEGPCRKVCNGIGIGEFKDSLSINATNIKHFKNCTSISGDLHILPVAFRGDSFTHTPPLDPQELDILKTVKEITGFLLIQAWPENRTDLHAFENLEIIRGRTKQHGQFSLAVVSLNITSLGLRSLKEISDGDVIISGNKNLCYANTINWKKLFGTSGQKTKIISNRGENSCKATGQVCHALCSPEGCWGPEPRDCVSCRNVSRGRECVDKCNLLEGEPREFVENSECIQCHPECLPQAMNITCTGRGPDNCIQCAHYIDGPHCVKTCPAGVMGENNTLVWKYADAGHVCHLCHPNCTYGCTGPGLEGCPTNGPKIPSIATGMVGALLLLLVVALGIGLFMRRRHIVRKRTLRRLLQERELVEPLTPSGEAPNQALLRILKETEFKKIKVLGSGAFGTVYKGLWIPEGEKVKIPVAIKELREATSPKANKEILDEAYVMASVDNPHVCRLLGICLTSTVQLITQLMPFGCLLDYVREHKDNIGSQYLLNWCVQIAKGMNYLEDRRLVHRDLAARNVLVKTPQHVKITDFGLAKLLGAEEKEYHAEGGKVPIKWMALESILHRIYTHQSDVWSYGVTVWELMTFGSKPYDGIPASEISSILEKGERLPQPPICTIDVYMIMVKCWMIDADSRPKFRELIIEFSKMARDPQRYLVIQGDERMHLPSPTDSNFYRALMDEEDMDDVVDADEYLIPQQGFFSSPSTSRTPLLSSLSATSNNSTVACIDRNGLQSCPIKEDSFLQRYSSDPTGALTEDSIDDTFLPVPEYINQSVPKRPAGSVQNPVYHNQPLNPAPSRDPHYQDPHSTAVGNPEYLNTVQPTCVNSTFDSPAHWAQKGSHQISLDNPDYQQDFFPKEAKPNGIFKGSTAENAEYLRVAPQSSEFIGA

O=C(NC[C@@H]1[C@H]2CN(C(=O)OCc3cc(C(F)(F)F)cc(C(F)(F)F)c3)C[C@@H]12)c1ccc2[nH]nnc2c1 [BI 2545]
inactive: residual activity [1] 91% | residual activity [2] 89% | residual activity [3] 83% | residual activity [4] 100% | residual activity [5] 100% | residual activity [6] 91% | residual activity [7] 84% | residual activity [8] 89% | residual activity [9] 100% | residual activity [10] 81% | residual activity [11] 77% | residual activity [12] 100% | residual activity [13] 94% | residual activity [14] 78% | residual activity [15] 88% | residual activity [16] 88% | residual activity [17] 98% | residual activity [18] 82% | residual activity [19] 84% | residual activity [20] 91% | residual activity [21] 77% | residual activity [22] 100% | residual activity [23] 91% | residual activity [24] 100% | residual activity [25] 83% | residual activity [26] 100% | residual activity [27] 100% | residual activity [28] 91% | residual activity [29] 80% | residual activity [30] 90% | residual activity [31] 97% | residual activity [32] 100% | residual activity [33] 100% | residual activity [34] 100% | inhibition [35] 31.5% | residual activity [36] 100% | residual activity [37] 100% | residual activity [38] 100% | residual activity [39] 86% | residual activity [40] 66% | residual activity [41] 96% | residual activity [42] 83% | residual activity [43] 92% | residual activity [44] 93%

Cc1nccc(COC(=O)N2C[C@@H]3[C@@H](CNC(=O)c4ccc5[nH]nnc5c4)[C@@H]3C2)n1 [BI 3017]
inactive: residual activity [1] 82% | residual activity [2] 71% | residual activity [3] 100% | residual activity [4] 54% | residual activity [5] 72% | residual activity [6] 70% | residual activity [7] 79% | residual activity [8] 100% | residual activity [9] 92% | residual activity [10] 88% | residual activity [11] 94% | residual activity [12] 97% | residual activity [13] 100% | residual activity [14] 85% | residual activity [15] 86% | residual activity [16] 79% | residual activity [17] 100% | residual activity [18] 90% | residual activity [19] 84% | residual activity [20] 93% | residual activity [21] 100% | residual activity [22] 100% | residual activity [23] 100% | residual activity [24] 100% | residual activity [25] 100% | residual activity [26] 88% | residual activity [27] 100% | residual activity [28] 90% | residual activity [29] 94% | residual activity [30] 84% | residual activity [31] 100% | residual activity [32] 90% | residual activity [33] 81% | residual activity [34] 97% | inhibition [35] -6.02% | residual activity [36] 100% | residual activity [37] 100% | residual activity [38] 100% | residual activity [39] 95% | residual activity [40] 100% | residual activity [41] 87% | residual activity [42] 84% | residual activity [43] 85% | residual activity [44] 100%
